From PubChem BioAssay (NCI)
“And” between values parts separate entries of the source, which are not always exact repeats. Equal entries are not always repeated.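 96-well plates; 48 h exposure; 5 concentrations. Endpoints by linear interpolation between flanking doses. Not reached: highest tested concentration assigned. Here, GI50 denotes the concentration required for 50% inhibition of growth. TGI: concentration producing complete growth inhibition.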

Columns and labels:
Assay in all cases: growth of human tumour cells (NCI), 48 h
CCRF-CEM leukemia = tested on: CCRF-CEM leukemia
UO-31 renal = tested on: UO-31 renal
HCC-2998 colon = tested on: HCC-2998 colon
OVCAR-3 ovarian = tested on: OVCAR-3 ovarian
OVCAR-5 ovarian = tested on: OVCAR-5 ovarian
SK-OV-3 ovarian = tested on: SK-OV-3 ovarian
EKVX NSCLC = tested on: EKVX NSCLC
KM12 colon = tested on: KM12 colon

Compound	GI50 (CCRF-CEM leukemia)	TGI (CCRF-CEM leukemia)	GI50 (UO-31 renal)	TGI (UO-31 renal)	GI50 (HCC-2998 colon)	TGI (HCC-2998 colon)	GI50 (OVCAR-3 ovarian)	TGI (OVCAR-3 ovarian)	GI50 (OVCAR-5 ovarian)	TGI (OVCAR-5 ovarian)	GI50 (SK-OV-3 ovarian)	TGI (SK-OV-3 ovarian)	GI50 (EKVX NSCLC)	TGI (EKVX NSCLC)	GI50 (KM12 colon)	TGI (KM12 colon)
O=C(CCCCCCN1CC(=O)N2[C@@H](c3ccc(Cl)c(Cl)c3)c3[nH]c4ccccc4c3C[C@H]2C1=O)NO	1.07 µM	> 33.3 µM	3.52 µM	8.86 µM	3.9 µM	8.38 µM	1.62 µM	6.57 µM	3.86 µM	13.4 µM	4.58 µM	9.81 µM	7.71 µM	> 33.3 µM	3.8 µM	9.29 µM
Cc1cc(N=Nc2ccccc2C)ccc1N	0.435 µM	> 100 µM	0.874 µM	13.2 µM and 11.3 µM	22 µM	24.9 µM and 53.5 µM		21.8 µM and 23.7 µM	15 µM	41.3 µM and 37.6 µM	22.2 µM	67 µM and 66.9 µM	11.7 µM	45.4 µM and 68 µM	7.37 µM	23.2 µM and 21.5 µM
O=C(O)Cc1cccnc1		> 100 µM		> 100 µM		> 100 µM		> 100 µM		> 100 µM		> 100 µM		> 100 µM		> 100 µM
O=[N+]([O-])c1ccc(N2CCOCC2)c2c1no[n+]2[O-]	0.728 µM	3.86 µM	1.42 µM	5.07 µM	1.53 µM	7.25 µM	1.4 µM	3.15 µM	3.28 µM	13.4 µM	1.43 µM	4.68 µM	1.93 µM	6.72 µM	1.14 µM	2.48 µM
O=C(/C=C/c1cccc(O)c1)c1cccc(-n2cc(-c3ccccc3)[nH]c2=O)c1	3.1 µM	> 41.1 µM	1.99 µM	7.02 µM	8.27 µM	20.2 µM	2.58 µM	6.19 µM	3.86 µM	11.9 µM	12.3 µM	25 µM	7.18 µM	23 µM	1.78 µM	3.46 µM
Oc1c(I)cc(I)c2cccnc12	6.95 µM	> 100 µM	2.17 µM	21.4 µM	2.44 µM	7.34 µM	2.42 µM	6.5 µM	3.57 µM	24.6 µM	5.17 µM	29.2 µM	3.38 µM	24.2 µM	4.69 µM	> 100 µM
N#CC1=C(/N=C/c2ccccc2)Oc2c(ccc3ccccc23)C1c1ccccc1 (configuration not stated)	0.462 µM	> 100 µM	0.452 µM	> 100 µM	1.2 µM	> 67.9 µM	0.341 µM	2.3 µM	2.13 µM	> 100 µM	0.534 µM	> 100 µM	5.13 µM	> 100 µM	0.46 µM	> 100 µM
CSc1nc2sc3c(c2c(=O)n1-c1ccc(C(C)C)cc1)CCC(=O)C3	2.42 µM	6.42 µM	1.57 µM	3.26 µM	2.47 µM	5.02 µM	1.94 µM	3.53 µM	2.71 µM	6.58 µM	2.63 µM	6.92 µM	3.02 µM	> 100 µM	1.9 µM	3.95 µM
O=C(O)CCC(=O)c1ccc2sc3ccccc3c2c1				> 100 µM				> 100 µM		> 100 µM		> 100 µM		> 100 µM		> 100 µM
CC1(C)CC(=O)C2=C(C1)OC(N)=C(c1nc(-c3ccccc3)cs1)C2c1ccc(Br)cc1 (configuration not stated)	58.6 µg/mL	> 150 µg/mL			44.4 µg/mL	> 150 µg/mL	59.7 µg/mL	> 150 µg/mL	> 150 µg/mL	> 150 µg/mL	102 µg/mL	> 150 µg/mL	64.5 µg/mL	> 150 µg/mL	87.6 µg/mL	> 150 µg/mL
COc1cc2c(cc1OCCCCN1CCN(C(=S)SCCC(C#N)(c3ccccc3)c3ccccc3)CC1)N=C[C@@H]1CCCN1C2=O	0.532 µM	> 100 µM	0.593 µM	2.09 µM			1.2 µM	2.93 µM	2.47 µM	5.38 µM	2.96 µM	9.81 µM	1.88 µM	5.74 µM	1.39 µM	3.78 µM
C=CCN1CC(=O)N2[C@@H](Cc3ccc(O)cc3F)C(=O)N(Cc3cccc(N4CC(N5CCN(CC)CC5)C4)n3)C[C@@H]2N1C(=O)NCc1ccccc1	0.0398 µM	> 100 µM	0.919 µM	> 100 µM	0.0687 µM	> 100 µM	0.0328 µM	> 100 µM	0.0354 µM	> 100 µM	0.0345 µM	0.244 µM	0.278 µM	> 100 µM	0.111 µM	> 100 µM
Cn1cc(C2=C(c3cccc(OC[C@@H](O)CO)c3)C(=O)NC2=O)c2ccccc21	> 22.5 µM	> 25 µM	> 19.1 µM	> 25 µM	> 25 µM	> 25 µM	11.2 µM	> 25 µM	> 25 µM	> 25 µM	> 18.3 µM	> 25 µM			11 µM	> 25 µM
COC(=O)CCCCC(=O)c1c(C)[nH]c(/C=C2\N=C(c3ccc[nH]3)C=C2OC)c1C	0.159 µM	2.32 µM	0.334 µM	1.24 µM	1.96 µM	4.19 µM	0.88 µM	2.24 µM	0.87 µM	2.38 µM	2.25 µM	4.4 µM	1.14 µM	2.61 µM	0.54 µM	1.96 µM
O=C(O)c1cccc(C(=O)O)c1S(=O)Cc1ccccc1 (configuration not stated)				> 100 µM		> 100 µM		> 100 µM		> 100 µM		> 100 µM		> 100 µM		> 100 µM
Cc1cccc2c3c(sc12)C(c1ccc(Cl)cc1)C(C#N)=C(N)O3 (configuration not stated)	0.382 µM	32.1 µM	0.664 µM	16.2 µM	0.67 µM	6.43 µM	0.384 µM	3.16 µM	0.541 µM	11.5 µM	3.59 µM	27.2 µM	0.57 µM	17.8 µM	0.428 µM	10.7 µM

Compound	GI50 (CCRF-CEM leukemia)	TGI (CCRF-CEM leukemia)	GI50 (UO-31 renal)	TGI (UO-31 renal)	GI50 (HCC-2998 colon)	TGI (HCC-2998 colon)	GI50 (OVCAR-3 ovarian)	TGI (OVCAR-3 ovarian)	GI50 (OVCAR-5 ovarian)	TGI (OVCAR-5 ovarian)	GI50 (SK-OV-3 ovarian)	TGI (SK-OV-3 ovarian)	GI50 (EKVX NSCLC)	TGI (EKVX NSCLC)	GI50 (KM12 colon)	TGI (KM12 colon)
O=C1OC(C(O)CO)C(O)=C1O (configuration not stated)	239 µM and 275 µM	576 µM and 792 µM	1760 µM and 1380 µM	3170 µM and 2720 µM	> 10000 µM	> 10000 µM	1560 µM	2900 µM	1790 µM and 1730 µM	3400 µM and 3310 µM	6030 µM and > 4760 µM	> 10000 µM	2420 µM	4390 µM	1790 µM and > 3990 µM	3270 µM and > 5430 µM
CC(C)(O)CNc1nc(Nc2ccnc(C(F)(F)F)c2)nc(-c2cccc(C(F)(F)F)n2)n1	21.3 µM	73.9 µM	19.9 µM	50.4 µM	20.3 µM	43.7 µM	20.1 µM	52 µM	22.5 µM	63 µM	26.6 µM	68.3 µM	21.4 µM	64.1 µM	16.4 µM	43.7 µM
Oc1cccc2ccc(N/N=C/c3cc(CN4CCOCC4)c(O)c4ncccc34)nc12	0.0391 µM	9.95 µM	0.0124 µM	1.24 µM	0.0368 µM	1.93 µM	0.0392 µM	2.09 µM	0.135 µM	15.4 µM	0.0272 µM	0.368 µM	0.0962 µM	11.2 µM	0.0267 µM	3.41 µM
Cc1ccc(/C(C#N)=C/c2cccc([N+](=O)[O-])c2)cc1				> 100 µM		> 100 µM		> 100 µM		> 100 µM		> 100 µM		> 100 µM		> 100 µM
COc1ccc(N(CC(=O)NCCC[Te]c2ccccc2)C(=O)CNC(=O)OC(C)(C)C)cc1			2.38 µM	9.04 µM	2.6 µM	6.6 µM	3 µM	7.88 µM	3 µM	7.48 µM	2.34 µM	4.83 µM	0.343 µM	2.35 µM	3.33 µM	11.4 µM
N#CCN1CCn2c1nsc2=S	1.6 µM	> 100 µM	44.8 µM	> 100 µM			> 100 µM	> 100 µM			> 100 µM	> 100 µM	> 100 µM	> 100 µM	88.9 µM	> 100 µM
C(=N/N(Cc1ccccc1)Cc1ccccc1)/c1ccccc1			> 100 µM	> 100 µM	> 100 µM	> 100 µM	> 100 µM	> 100 µM	> 100 µM	> 100 µM	> 100 µM	> 100 µM	59.3 µM	> 100 µM	> 100 µM	> 100 µM
CCCCCO/N=C\c1c2c(O)c3c(O)c(C)c4c(c3c1O)C(=O)C(C)(O/C=C\C(OC)C(C)C(OC(C)=O)C(C)C(O)C(C)C(O)C(C)/C=C\C=C(\C)C(=O)N2)O4 (configuration not stated)	2.92 µM	10.2 µM			1.65 µM	3.08 µM	1.5 µM	2.82 µM	1.94 µM	4.12 µM	2.29 µM	6.84 µM	2.09 µM	6.95 µM	1.64 µM	3 µM
CC1=C(CC(=O)c2cccc([N+](=O)[O-])c2)C(=O)c2ccccc2C1=O	3.19 µM	19.3 µM	10.7 µM	28.8 µM	38 µM	> 100 µM	2.82 µM	9.34 µM	6.98 µM	20.5 µM	28.6 µM	99.2 µM			17.3 µM	49.5 µM
COC(=O)[C@H]1CCCN1C(=O)[C@H]1CCCN1C(=O)[C@@H](Cc1c[nH]c2ccccc12)NC(=S)Nc1cc(C(F)(F)F)cc(C(F)(F)F)c1	3.14 µM	> 100 µM	2.16 µM	6.31 µM	1.82 µM	3.3 µM	1.69 µM	3.41 µM	1.78 µM	3.54 µM	3.01 µM	10.1 µM			1.88 µM	3.92 µM
O=C(Nc1cccc(-n2cc(-c3ccncc3)c(-c3cc(O)cc(Cl)c3)n2)c1)c1cc(C(F)(F)F)cc(C(F)(F)F)c1	2.68 µM	> 100 µM	2.5 µM	> 100 µM	3.12 µM	11.6 µM	3.28 µM	25.7 µM	8.23 µM	38.4 µM	10.8 µM	> 100 µM				
C#CCNC(=O)[C@H](CC)[C@H]1CC[C@H](C)[C@H]([C@@H](C)[C@H](O)[C@H](C)C(=O)[C@H](CC)C2O[C@]3(C=CC(=O)[C@]4(CC[C@@](C)([C@H]5CC[C@](O)(CC)[C@H](C)O5)O4)O3)[C@H](C)C[C@@H]2C)O1 (some centres not stated)	2.76 µM	19.3 µM	2.01 µM	7.81 µM	2.35 µM	5.89 µM	1.86 µM	3.98 µM	2.62 µM	8.16 µM	3.42 µM	> 100 µM	2.59 µM	> 100 µM		
N#CCCN1C/C(=C/c2ccc(Cl)cc2)C(=O)/C(=C/c2ccc(Cl)cc2)C1	0.396 µM	2.88 µM	1.39 µM	2.77 µM	1.84 µM	3.33 µM	1.2 µM	2.5 µM	2.07 µM	4.7 µM	2.23 µM	5.4 µM			0.275 µM	0.841 µM
c1ccc(CCc2cccnc2)nc1				> 100 µM				> 100 µM		> 100 µM		> 100 µM		> 100 µM		> 100 µM
CCc1cccc(C)c1NC(=O)c1sc2nc3c(cc2c1N)C(=O)CCC3	0.407 µM	> 35.4 µM	2.25 µM	99.8 µM	1.75 µM	> 100 µM	0.375 µM	2.74 µM	2.74 µM	> 100 µM	0.541 µM	> 100 µM			0.455 µM	> 100 µM
COC1C(O)C(CO)OC(OC2C(O)COC(OC3C(C)OC(OC4C(O[C@H]5CC[C@@]6(C)C(CC=C7[C@H]6CCC68C(=O)O[C@@](C)(CCCC(C)C)[C@H]6[C@@H](OC(C)=O)C[C@@]78C)C5(C)C)OCC(OS(=O)(=O)O)C4O)C(OC4OCC(O)C(O)C4O)C3O)C2O)C1O (some centres not stated)	0.225 µM	0.775 µM	0.2 µM	0.746 µM	0.13 µM	0.391 µM	0.181 µM		0.241 µM	0.564 µM			0.101 µM	0.565 µM	0.0746 µM	0.193 µM
